Laboratory results reported in PMC4867616, “Imaging of Cerebral Amyloid Angiopathy with Bivalent ^99mTc-Hydroxamamide Complexes” (Scientific Reports, 2016).
Values joined by “and” are separate entries in the source; they are usually repeats but may differ in a detail not shown here. Equal entries are not always repeated. One block for each compound: values may come before it.

Assays:
Aβ = biological target: Aβ; design: method as in PMID 12801237, PMID 19837759; conditions: order of magnitude only; cited from earlier work
[1] = normal mice, 2 min postinjection, similar experimental conditions; cited from earlier work
[2] = Ex vivo biodistribution in normal mice; design: species or system ddY mice; conditions: i.v., mean (SD), 5 animals
Protocol: To evaluate brain uptake of ^99mTc-Ham complexes, biodistribution experiments of ^99mTc-Ham complexes were performed in normal mice. We selected ^18F-florbetapir as a control and compared the results of ^99mTc-Ham complexes with that of ^18F-florbetapir (Fig. 2). The brain uptake of [^99mTc]SB1A, [^99mTc]SB2A, [^99mTc]BT1B, and [^99mTc]BT2B at 2 min postinjection was 0.37, 0.28, 0.36, and 0.37% injected dose (ID)/g, respectively. The radioactivity in the brains remained low until 60 min postinjection. The results of the biodistribution study are shown in Table S1 in Supplementary information.
A saline solution (100 μL) of ^99mTc-Ham complexes (20 kBq) containing EtOH (10 μL) was injected directly into the tail vein of ddY mice (male, 5 weeks old). The mice were sacrificed at 2, 10, 30, and 60 min postinjection. The organs of interest were removed and weighed, and radioactivity was measured using a γ counter (PerkinElmer). The %ID/g of samples was calculated by comparing the sample counts with the count of the diluted initial dose.
*Corresponding author: M. Ono. Address: 46-29 Yoshida Shimoadachi-cho, Sakyo-ku, Kyoto 606-8501, Japan, Phone: +81-75-753-4608, Fax: +81-75-753-4568, E-mail: ono@pharm.kyoto-u.ac.jp. Ex vivo biodistribution in normal mice. A saline solution (100 μL) of ^99mTc-Ham complexes (20 kBq) containing EtOH (10 μL) was injected directly into the tail vein of ddY mice (male, 5 weeks old). The mice were sacrificed at 2, 10, 30, and 60 min postinjection. The organs of interest were removed and weighed, and radioactivity was measured using a γ counter (Wallac 1470 Wizard; PerkinElmer, Massachusetts, USA). Percentage dose per organ was calculated by comparing the tissue counts to suitably diluted aliquots of the injected material. The %dose/g of samples was calculated by comparing the sample counts with the count of the diluted initial dose.

Compound: CNc1ccc(/C=C/c2ccc(OCCOCCOCCF)nc2)cc1 [[^18F]florbetapir, reference compound]
Kd (Aβ): nM order
Initial brain uptake [1]: 4.90 %ID/g

Biodistribution of radioactivity, Blood ([2]; 2 min after injection): 18.89 (4.57) % injected dose per gram
Biodistribution of radioactivity, Heart ([2]; 2 min after injection): 9.48 (2.01) % injected dose per gram
Biodistribution of radioactivity, Intestine ([2]; 2 min after injection): 1.94 (0.25) % injected dose per gram
Biodistribution of radioactivity, Kidney ([2]; 2 min after injection): 10.74 (2.03) % injected dose per gram
Biodistribution of radioactivity, Liver ([2]; 2 min after injection): 28.55 (4.86) % injected dose per gram
Biodistribution of radioactivity, Lung ([2]; 2 min after injection): 15.47 (4.14) % injected dose per gram
Biodistribution of radioactivity, Pancreas ([2]; 2 min after injection): 4.12 (0.62) % injected dose per gram
Biodistribution of radioactivity, Spleen ([2]; 2 min after injection): 9.73 (3.34) % injected dose per gram
Biodistribution of radioactivity, Stomach ([2]; 2 min after injection): 1.64 (0.41) % injected dose per organ
Biodistribution of radioactivity, Blood ([2]; 10 min after injection): 9.30 (1.96) % injected dose per gram
Biodistribution of radioactivity, Brain ([2]; 10 min after injection): 0.19 (0.02) % injected dose per gram
Biodistribution of radioactivity, Heart ([2]; 10 min after injection): 6.51 (0.77) % injected dose per gram
Biodistribution of radioactivity, Intestine ([2]; 10 min after injection): 4.27 (0.88) % injected dose per gram
Biodistribution of radioactivity, Kidney ([2]; 10 min after injection): 9.48 (1.28) % injected dose per gram
Biodistribution of radioactivity, Liver ([2]; 10 min after injection): 31.03 (2.29) % injected dose per gram
Biodistribution of radioactivity, Lung ([2]; 10 min after injection): 9.67 (0.88) % injected dose per gram
Biodistribution of radioactivity, Pancreas ([2]; 10 min after injection): 3.09 (0.38) % injected dose per gram
Biodistribution of radioactivity, Spleen ([2]; 10 min after injection): 9.70 (3.03) % injected dose per gram
Biodistribution of radioactivity, Stomach ([2]; 10 min after injection): 4.54 (0.97) % injected dose per organ
Biodistribution of radioactivity, Blood ([2]; 30 min after injection): 6.06 (0.29) % injected dose per gram
Biodistribution of radioactivity, Brain ([2]; 30 min after injection): 0.16 (0.03) % injected dose per gram
Biodistribution of radioactivity, Heart ([2]; 30 min after injection): 2.98 (0.63) % injected dose per gram
Biodistribution of radioactivity, Intestine ([2]; 30 min after injection): 7.06 (1.67) % injected dose per gram
Biodistribution of radioactivity, Kidney ([2]; 30 min after injection): 6.18 (0.84) % injected dose per gram
Biodistribution of radioactivity, Liver ([2]; 30 min after injection): 20.17 (3.18) % injected dose per gram
Biodistribution of radioactivity, Lung ([2]; 30 min after injection): 5.31 (0.67) % injected dose per gram
Biodistribution of radioactivity, Pancreas ([2]; 30 min after injection): 1.74 (0.33) % injected dose per gram
Biodistribution of radioactivity, Spleen ([2]; 30 min after injection): 7.86 (1.11) % injected dose per gram
Biodistribution of radioactivity, Stomach ([2]; 30 min after injection): 10.28 (2.03) % injected dose per organ
Biodistribution of radioactivity, Blood ([2]; 60 min after injection): 2.71 (0.14) % injected dose per gram
Biodistribution of radioactivity, Brain ([2]; 60 min after injection): 0.08 (0.00) % injected dose per gram
Biodistribution of radioactivity, Heart ([2]; 60 min after injection): 4.30 (0.14) % injected dose per gram
Biodistribution of radioactivity, Intestine ([2]; 60 min after injection): 14.34 (2.35) % injected dose per gram
Biodistribution of radioactivity, Kidney ([2]; 60 min after injection): 9.66 (0.18) % injected dose per gram
Biodistribution of radioactivity, Liver ([2]; 60 min after injection): 22.16 (2.20) % injected dose per gram
Biodistribution of radioactivity, Lung ([2]; 60 min after injection): 5.14 (0.29) % injected dose per gram
Biodistribution of radioactivity, Pancreas ([2]; 60 min after injection): 2.67 (0.07) % injected dose per gram
Biodistribution of radioactivity, Spleen ([2]; 60 min after injection): 5.44 (0.49) % injected dose per gram
Biodistribution of radioactivity, Stomach ([2]; 60 min after injection): 6.63 (1.12) % injected dose per organ
Compound: CN(C)c1ccc(/C=C/c2ccc(C3=N[O][99Tc-]4(=[O])([NH]C(c5ccc(N(C)C)cc5)=N[O]4)[NH2+]3)cc2)cc1 (single isomer, unassigned) [[^99mTc]SB1A]
Biodistribution of radioactivity, Brain ([2]; 2 min after injection): 0.37 % injected dose per gram and 0.37 (0.05) % injected dose per gram

Compound: Thioflavin-S
Kd (Aβ): μM order

Biodistribution of radioactivity, Blood ([2]; 2 min after injection): 18.61 (2.47) % injected dose per gram
Biodistribution of radioactivity, Heart ([2]; 2 min after injection): 5.25 (0.22) % injected dose per gram
Biodistribution of radioactivity, Intestine ([2]; 2 min after injection): 0.90 (0.25) % injected dose per gram
Biodistribution of radioactivity, Kidney ([2]; 2 min after injection): 5.94 (0.73) % injected dose per gram
Biodistribution of radioactivity, Liver ([2]; 2 min after injection): 19.90 (4.06) % injected dose per gram
Biodistribution of radioactivity, Lung ([2]; 2 min after injection): 10.87 (2.06) % injected dose per gram
Biodistribution of radioactivity, Pancreas ([2]; 2 min after injection): 1.80 (0.28) % injected dose per gram
Biodistribution of radioactivity, Spleen ([2]; 2 min after injection): 3.83 (0.84) % injected dose per gram
Biodistribution of radioactivity, Stomach ([2]; 2 min after injection): 1.39 (0.21) % injected dose per organ
Biodistribution of radioactivity, Blood ([2]; 10 min after injection): 9.34 (2.62) % injected dose per gram
Biodistribution of radioactivity, Brain ([2]; 10 min after injection): 0.17 (0.04) % injected dose per gram
Biodistribution of radioactivity, Heart ([2]; 10 min after injection): 3.30 (1.02) % injected dose per gram
Biodistribution of radioactivity, Intestine ([2]; 10 min after injection): 2.00 (0.86) % injected dose per gram
Biodistribution of radioactivity, Kidney ([2]; 10 min after injection): 4.29 (1.25) % injected dose per gram
Biodistribution of radioactivity, Liver ([2]; 10 min after injection): 25.64 (6.77) % injected dose per gram
Biodistribution of radioactivity, Lung ([2]; 10 min after injection): 6.50 (1.41) % injected dose per gram
Biodistribution of radioactivity, Pancreas ([2]; 10 min after injection): 1.58 (0.55) % injected dose per gram
Biodistribution of radioactivity, Spleen ([2]; 10 min after injection): 3.00 (0.82) % injected dose per gram
Biodistribution of radioactivity, Stomach ([2]; 10 min after injection): 3.76 (0.82) % injected dose per organ
Biodistribution of radioactivity, Blood ([2]; 30 min after injection): 5.84 (0.65) % injected dose per gram
Biodistribution of radioactivity, Brain ([2]; 30 min after injection): 0.11 (0.02) % injected dose per gram
Biodistribution of radioactivity, Heart ([2]; 30 min after injection): 2.72 (0.28) % injected dose per gram
Biodistribution of radioactivity, Intestine ([2]; 30 min after injection): 6.81 (2.03) % injected dose per gram
Biodistribution of radioactivity, Kidney ([2]; 30 min after injection): 5.24 (0.59) % injected dose per gram
Biodistribution of radioactivity, Liver ([2]; 30 min after injection): 27.06 (2.49) % injected dose per gram
Biodistribution of radioactivity, Lung ([2]; 30 min after injection): 5.00 (0.34) % injected dose per gram
Biodistribution of radioactivity, Pancreas ([2]; 30 min after injection): 1.72 (0.11) % injected dose per gram
Biodistribution of radioactivity, Spleen ([2]; 30 min after injection): 3.11 (0.48) % injected dose per gram
Biodistribution of radioactivity, Stomach ([2]; 30 min after injection): 8.24 (1.41) % injected dose per organ
Biodistribution of radioactivity, Blood ([2]; 60 min after injection): 3.51 (0.34) % injected dose per gram
Biodistribution of radioactivity, Brain ([2]; 60 min after injection): 0.08 (0.02) % injected dose per gram
Biodistribution of radioactivity, Heart ([2]; 60 min after injection): 1.64 (0.32) % injected dose per gram
Biodistribution of radioactivity, Intestine ([2]; 60 min after injection): 9.95 (2.65) % injected dose per gram
Biodistribution of radioactivity, Kidney ([2]; 60 min after injection): 3.20 (0.45) % injected dose per gram
Biodistribution of radioactivity, Liver ([2]; 60 min after injection): 19.04 (3.61) % injected dose per gram
Biodistribution of radioactivity, Lung ([2]; 60 min after injection): 2.78 (0.54) % injected dose per gram
Biodistribution of radioactivity, Pancreas ([2]; 60 min after injection): 1.11 (0.18) % injected dose per gram
Biodistribution of radioactivity, Spleen ([2]; 60 min after injection): 1.36 (0.54) % injected dose per gram
Biodistribution of radioactivity, Stomach ([2]; 60 min after injection): 6.47 (0.85) % injected dose per organ
Compound: CN(C)c1ccc(C2=N[O][99Tc-]3(=[O])([NH]2)[NH2+]C(c2ccc4nc(-c5ccc(N(C)C)cc5)sc4c2)=N[O]3)cc1 [[^99mTc]BT1B]
Biodistribution of radioactivity, Brain ([2]; 2 min after injection): 0.36 % injected dose per gram and 0.36 (0.03) % injected dose per gram
